Test results reported in the NIST ThermoML archive (doi:10.1021/je800110r).
Numbers after ± are expanded uncertainties.

Conditions: 293.15 K, Liquid, Vibrating tube method

CCCCCCCCCC [decane]
mass density (9533 kPa): 737 ± 2 kg/m3
mass density (9562 kPa): 737.1 ± 2 kg/m3
mass density (9590 kPa): 737 ± 2 kg/m3
mass density (9615 kPa): 737.1 ± 2 kg/m3
mass density (9642 kPa): 737.1 ± 2 kg/m3
mass density (9666 kPa): 737.1 ± 2 kg/m3
mass density (9687 kPa): 737.2 ± 2 kg/m3
mass density (9718 kPa): 737.2 ± 2 kg/m3
mass density (9743 kPa): 737.1 ± 2 kg/m3
mass density (9767 kPa): 737.3 ± 2 kg/m3
mass density (9799 kPa): 737.3 ± 2 kg/m3
mass density (9821 kPa): 737.3 ± 2 kg/m3
mass density (9853 kPa): 737.3 ± 2 kg/m3
mass density (9871 kPa): 737.2 ± 2 kg/m3
mass density (9897 kPa): 737.3 ± 2 kg/m3
mass density (9920 kPa): 737.3 ± 2 kg/m3
mass density (9953 kPa): 737.3 ± 2 kg/m3
mass density (9986 kPa): 737.4 ± 2 kg/m3
mass density (10009 kPa): 737.4 ± 2 kg/m3
mass density (10042 kPa): 737.4 ± 2 kg/m3
mass density (10073 kPa): 737.4 ± 2 kg/m3
mass density (10096 kPa): 737.4 ± 2 kg/m3
mass density (10134 kPa): 737.4 ± 2 kg/m3
mass density (10165 kPa): 737.6 ± 2 kg/m3
mass density (10193 kPa): 737.5 ± 2 kg/m3
mass density (10218 kPa): 737.5 ± 2 kg/m3
mass density (10248 kPa): 737.6 ± 2 kg/m3
mass density (10278 kPa): 737.6 ± 2 kg/m3
mass density (10298 kPa): 737.6 ± 2 kg/m3
mass density (10313 kPa): 737.6 ± 2 kg/m3
mass density (10327 kPa): 737.6 ± 2 kg/m3
mass density (10344 kPa): 737.6 ± 2 kg/m3
mass density (10358 kPa): 737.7 ± 2 kg/m3
mass density (10372 kPa): 737.7 ± 2 kg/m3
mass density (10389 kPa): 737.6 ± 2 kg/m3
mass density (10406 kPa): 737.7 ± 2 kg/m3
mass density (10428 kPa): 737.8 ± 2 kg/m3
mass density (10443 kPa): 737.7 ± 2 kg/m3
mass density (10461 kPa): 737.8 ± 2 kg/m3
mass density (10481 kPa): 737.6 ± 2 kg/m3
mass density (10498 kPa): 737.7 ± 2 kg/m3
mass density (10516 kPa): 737.8 ± 2 kg/m3
mass density (10533 kPa): 737.7 ± 2 kg/m3
mass density (10550 kPa): 737.8 ± 2 kg/m3
mass density (10570 kPa): 737.8 ± 2 kg/m3
mass density (10587 kPa): 737.8 ± 2 kg/m3
mass density (10602 kPa): 737.7 ± 2 kg/m3
mass density (10625 kPa): 737.8 ± 2 kg/m3
mass density (10645 kPa): 737.9 ± 2 kg/m3
mass density (10661 kPa): 737.8 ± 2 kg/m3
mass density (10679 kPa): 737.8 ± 2 kg/m3
mass density (10697 kPa): 737.9 ± 2 kg/m3
mass density (10715 kPa): 737.9 ± 2 kg/m3
mass density (10735 kPa): 737.9 ± 2 kg/m3
mass density (10753 kPa): 737.9 ± 2 kg/m3
mass density (10768 kPa): 737.8 ± 2 kg/m3
mass density (10787 kPa): 737.9 ± 2 kg/m3
mass density (10803 kPa): 737.8 ± 2 kg/m3
mass density (10824 kPa): 738 ± 2 kg/m3
mass density (10842 kPa): 738 ± 2 kg/m3
mass density (10860 kPa): 737.9 ± 2 kg/m3
mass density (10879 kPa): 738.1 ± 2 kg/m3
mass density (10892 kPa): 738 ± 2 kg/m3
mass density (10913 kPa): 738 ± 2 kg/m3
mass density (10929 kPa): 737.9 ± 2 kg/m3
mass density (10950 kPa): 738.1 ± 2 kg/m3
mass density (10966 kPa): 738 ± 2 kg/m3
mass density (10985 kPa): 738.1 ± 2 kg/m3
mass density (11001 kPa): 738.1 ± 2 kg/m3
mass density (11023 kPa): 738.1 ± 2 kg/m3
mass density (11045 kPa): 738.2 ± 2 kg/m3
mass density (11061 kPa): 738.1 ± 2 kg/m3
mass density (11081 kPa): 738.1 ± 2 kg/m3
mass density (11094 kPa): 738.1 ± 2 kg/m3
mass density (11111 kPa): 738.1 ± 2 kg/m3
mass density (11131 kPa): 738.2 ± 2 kg/m3
mass density (11156 kPa): 738.3 ± 2 kg/m3
mass density (11170 kPa): 738.1 ± 2 kg/m3
mass density (11193 kPa): 738.3 ± 2 kg/m3
mass density (11210 kPa): 738.3 ± 2 kg/m3
mass density (11235 kPa): 738.2 ± 2 kg/m3
mass density (11255 kPa): 738.1 ± 2 kg/m3
mass density (11281 kPa): 738.2 ± 2 kg/m3
mass density (11304 kPa): 738.2 ± 2 kg/m3
mass density (11324 kPa): 738.3 ± 2 kg/m3
mass density (11348 kPa): 738.3 ± 2 kg/m3
mass density (11366 kPa): 738.3 ± 2 kg/m3
mass density (11387 kPa): 738.4 ± 2 kg/m3
mass density (11408 kPa): 738.3 ± 2 kg/m3
mass density (11425 kPa): 738.4 ± 2 kg/m3
mass density (11443 kPa): 738.3 ± 2 kg/m3
mass density (11460 kPa): 738.4 ± 2 kg/m3
mass density (11479 kPa): 738.4 ± 2 kg/m3
mass density (11492 kPa): 738.4 ± 2 kg/m3
mass density (11511 kPa): 738.5 ± 2 kg/m3
mass density (11524 kPa): 738.4 ± 2 kg/m3
mass density (11543 kPa): 738.5 ± 2 kg/m3
mass density (11560 kPa): 738.4 ± 2 kg/m3
mass density (11574 kPa): 738.5 ± 2 kg/m3
mass density (11596 kPa): 738.5 ± 2 kg/m3
mass density (11613 kPa): 738.5 ± 2 kg/m3
mass density (11628 kPa): 738.4 ± 2 kg/m3
mass density (11645 kPa): 738.6 ± 2 kg/m3
mass density (11664 kPa): 738.5 ± 2 kg/m3
mass density (11684 kPa): 738.6 ± 2 kg/m3
mass density (11701 kPa): 738.6 ± 2 kg/m3
mass density (11721 kPa): 738.6 ± 2 kg/m3
mass density (11740 kPa): 738.6 ± 2 kg/m3
mass density (11758 kPa): 738.6 ± 2 kg/m3
mass density (11775 kPa): 738.6 ± 2 kg/m3
mass density (11793 kPa): 738.6 ± 2 kg/m3
mass density (11810 kPa): 738.6 ± 2 kg/m3
mass density (11828 kPa): 738.7 ± 2 kg/m3
mass density (11845 kPa): 738.7 ± 2 kg/m3
mass density (11861 kPa): 738.7 ± 2 kg/m3
mass density (11888 kPa): 738.6 ± 2 kg/m3
mass density (11904 kPa): 738.7 ± 2 kg/m3
mass density (11927 kPa): 738.7 ± 2 kg/m3
mass density (11950 kPa): 738.8 ± 2 kg/m3
mass density (11966 kPa): 738.8 ± 2 kg/m3
mass density (11987 kPa): 738.8 ± 2 kg/m3
mass density (12010 kPa): 738.7 ± 2 kg/m3
mass density (12028 kPa): 738.8 ± 2 kg/m3
mass density (12049 kPa): 738.7 ± 2 kg/m3
mass density (12070 kPa): 738.9 ± 2 kg/m3
mass density (12089 kPa): 738.8 ± 2 kg/m3
mass density (12110 kPa): 738.9 ± 2 kg/m3
mass density (12131 kPa): 738.8 ± 2 kg/m3
mass density (12152 kPa): 738.8 ± 2 kg/m3
mass density (12170 kPa): 738.8 ± 2 kg/m3
mass density (12187 kPa): 739 ± 2 kg/m3
mass density (12201 kPa): 738.9 ± 2 kg/m3
mass density (12219 kPa): 738.9 ± 2 kg/m3
mass density (12238 kPa): 738.9 ± 2 kg/m3
mass density (12263 kPa): 739.2 ± 2 kg/m3
mass density (12285 kPa): 739 ± 2 kg/m3
mass density (12301 kPa): 739 ± 2 kg/m3
